Laboratory results: patent publication US20110065762A1, “METHODS OF USE OF ANTIVIRAL COMPOUNDS” (priority 2009, published 2011)

target: T1, M2(S31) (Influenza A virus, UniProt P0DOF5); experiment: Cell-free electrophysiology of M2 proton channels on solid supported membranes (IonGate SURFE2R screen); type: biochemical; conditions: 25 μM inhibitor, activation by pH jump 7.0 to 6.0, % inhibition=100×(1−I/Io), 25 µM
T1 construct: expressed in transfected cells; host or cells: CHO cells (membrane preparation adsorbed to SSM sensors)
T1 sequence (P0DOF5 whole entry): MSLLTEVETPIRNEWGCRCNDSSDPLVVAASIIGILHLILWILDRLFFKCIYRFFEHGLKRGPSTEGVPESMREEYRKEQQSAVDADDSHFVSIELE

SMILES	IonGate_M2(S31)_Screen % Inhibition at 25 μM
N#CC1C2CC3CC1CC(O)(C3)C2 (stereo not drawn) [Example 8]	B (11-50% (B))
N#CC1C2CC3CC1CC(O)(C3)C2 (stereo not drawn) [Example 9]	C (1-10% (C))
N=C(N)NC1C2CC3CC1CC(Cl)(C3)C2 (stereo not drawn) [Example 23]	B (11-50% (B))
N=C(N)NC1C2CC3CC1CC(Cl)(C3)C2 (stereo not drawn) [Example 24]	A (51-95% (A))

same assay, conditions: 25 μM inhibitor, activation by pH jump 7.0 to 6.0, % inhibition=100×(1−I/Io), read-out: IonGate_M2(S31)_Screen % Inhibition at 25 μM

SMILES	inhibition at 25 µM
NCC1(O)C2CC3CC(C2)CC1C3 (stereo not drawn) [Example 1]	51 to 95%
OCCNC1C2CC3CC(C2)CC1C3 (stereo not drawn) [Example 2]	51 to 95%
NC1C2CC3CC1CC(O)(C3)C2 (stereo not drawn) [Example 3]	11 to 50%
OC12CC3CC(C1)C(n1ccnc1)C(C3)C2 (stereo not drawn) [Example 4, 4-imidazol-1-yladamantan-1-ol]	11 to 50%
NCC1C2CC3CC1CC(O)(C3)C2 (stereo not drawn) [Example 5]	11 to 50%
NCC1(O)C2CC3CC1CC(O)(C3)C2 (stereo not drawn) [Example 6]	11 to 50%
N=C(N)C1C2CC3CC(C2)CC1C3 (stereo not drawn) [Example 11]	51 to 95%
N#CC1C2CC3CC1CC(Cl)(C3)C2 (stereo not drawn) [Example 12]	11 to 50%
N=C(N)C1C2CC3CC1CC(Cl)(C3)C2 (stereo not drawn) [Example 14]	51 to 95%
NC1C2CC3CC1CC(Cl)(C3)C2 (stereo not drawn) [Example 15]	51 to 95%
N#CC1C2CC3CC(C2)CC1C3 (stereo not drawn) [Example 16]	51 to 95%
O=[N+]([O-])C1C2CC3CC1CC(Cl)(C3)C2 (stereo not drawn) [Example 18]	1 to 10%
NC1C2CC3CC(C2)CC1(O)C3 (stereo not drawn) [Example 19]	51 to 95%
O=[N+]([O-])C1C2CC3CC(C2)CC1(O)C3 (stereo not drawn) [Example 20]	11 to 50%
C1NC2C3CC4CC(C3)CC2(C4)O1 (stereo not drawn) [Example 21]	51 to 95%
NC1C2CC3CC1CC(S)(C3)C2 (stereo not drawn) [Example 22]	51 to 95%
NC1C2CC3CC(C2)CC1C3 (stereo not drawn) [Example 26]	11 to 50%
C1C2CC3CC1CC(C2)C1NC31 (stereo not drawn) [Example 27]	11 to 50%

SMILES	inhibition at 25 µM
O=C1C(=O)C2CC3CC(CC1C3)C2 [Example 28]	11 to 50%
O/N=C1\C(=N\O)C2CC3CC(CC1C3)C2 [Example 29]	11 to 50%
NC1C2CC3CC(C2)CC(C3)C1N (stereo not drawn) [Example 30]	51 to 95%
O=C1CC2CC3CC1CC(O)(C2)C3 (stereo not drawn) [Example 31]	11 to 50%
O/N=C1\CC2CC3CC1CC(O)(C2)C3 (stereo not drawn) [Example 32]	11 to 50%
NC1CC2CC3CC1CC(O)(C2)C3 (stereo not drawn) [Example 33]	11 to 50%
OC12CC3CC(C1)C1NC1C(C3)C2 (stereo not drawn) [Example 34]	11 to 50%
O=C1C(=O)C2CC3CC1CC(O)(C3)C2 [Example 35]	1 to 10%
OC1C2CC3CC(CC(O)(C3)C2)C1O (stereo not drawn) [Example 36]	1 to 10%
O=C1CC2CC3CC1CC(Cl)(C2)C3 (stereo not drawn) [Example 37]	11 to 50%
O/N=C1\CC2CC3CC1CC(Cl)(C2)C3 (stereo not drawn) [Example 38]	11 to 50%
NC1CC2CC3CC1CC(Cl)(C2)C3 (stereo not drawn) [Example 39]	11 to 50%
O=C1C(=O)C2CC3CC1CC(Cl)(C3)C2 [Example 40]	1 to 10%
OC1C2CC3CC(CC(Cl)(C3)C2)C1O (stereo not drawn) [Example 41]	1 to 10%
ON=C1C(=NO)C2CC3CC1CC(Cl)(C3)C2 [Example 42]	11 to 50%
NC1C2CC3CC(CC(Cl)(C3)C2)C1N (stereo not drawn) [Example 43]	1 to 10%
COC12CC3CC(C1)C(C#N)C(C3)C2 (stereo not drawn) [Example 44]	1 to 10%
